# Results taken from patent publication US10077243B2, “Compounds for treating disorders mediated by metabotropic glutamate receptor 5, and methods of use thereof” (Sunovion Pharmaceuticals Inc., priority 2009, dated 2018).
# Molecular target: T1, human mGluR5 (Homo sapiens, UniProt P41594)
# T1 construct: expressed in transfected cells; host or cells: HEK293 cells stably expressing rat GLAST (EAAT1), stably transfected with pcDNAzeo3.1 carrying synthetic human mGluR5 DNA; zeocin-selected single clones
# T1 sequence (P41594 21-1212): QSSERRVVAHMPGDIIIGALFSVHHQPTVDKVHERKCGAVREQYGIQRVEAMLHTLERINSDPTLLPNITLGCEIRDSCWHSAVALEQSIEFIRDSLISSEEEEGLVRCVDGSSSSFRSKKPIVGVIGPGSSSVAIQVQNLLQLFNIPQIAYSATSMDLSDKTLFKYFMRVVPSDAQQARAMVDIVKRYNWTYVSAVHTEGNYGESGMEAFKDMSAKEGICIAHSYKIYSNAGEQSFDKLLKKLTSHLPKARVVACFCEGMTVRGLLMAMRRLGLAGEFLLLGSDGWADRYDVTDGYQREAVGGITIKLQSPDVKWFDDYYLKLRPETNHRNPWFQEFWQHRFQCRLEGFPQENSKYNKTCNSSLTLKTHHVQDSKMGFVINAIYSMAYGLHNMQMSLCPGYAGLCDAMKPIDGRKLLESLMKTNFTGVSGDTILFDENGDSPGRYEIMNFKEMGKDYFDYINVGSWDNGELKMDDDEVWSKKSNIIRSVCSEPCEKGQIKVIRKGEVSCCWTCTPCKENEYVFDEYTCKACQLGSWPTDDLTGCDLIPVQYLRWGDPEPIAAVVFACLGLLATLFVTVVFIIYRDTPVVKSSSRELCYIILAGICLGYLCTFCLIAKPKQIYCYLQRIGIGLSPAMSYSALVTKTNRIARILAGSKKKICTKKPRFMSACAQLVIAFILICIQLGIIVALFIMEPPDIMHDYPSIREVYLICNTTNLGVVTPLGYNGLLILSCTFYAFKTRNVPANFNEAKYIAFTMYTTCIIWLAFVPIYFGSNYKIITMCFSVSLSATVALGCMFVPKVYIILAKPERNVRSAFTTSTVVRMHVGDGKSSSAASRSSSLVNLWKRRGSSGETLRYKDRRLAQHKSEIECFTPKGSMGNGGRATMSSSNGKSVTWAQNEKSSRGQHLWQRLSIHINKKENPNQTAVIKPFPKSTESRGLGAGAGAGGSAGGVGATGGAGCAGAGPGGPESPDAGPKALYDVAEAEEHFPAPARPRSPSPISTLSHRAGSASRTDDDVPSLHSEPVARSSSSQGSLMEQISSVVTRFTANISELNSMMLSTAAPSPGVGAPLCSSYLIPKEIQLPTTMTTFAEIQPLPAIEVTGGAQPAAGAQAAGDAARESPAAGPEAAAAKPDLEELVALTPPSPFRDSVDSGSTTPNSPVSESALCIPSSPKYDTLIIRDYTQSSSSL
# Assay: In vitro cell-based FLIPR calcium assay for positive modulation of the activation of mGluR5 by glutamate (PAM EC50)
# Details: HEK293/GLAST cells expressing recombinant human mGluR5; FLIPR calcium signal; glutamate added at its EC20; read-out: mGluR5 PAM EC50
# Procedure, shortened: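 PAM activity was measured as FLIPR calcium fluorescence in the presence of an EC20 glutamate concentration determined daily from a glutamate concentration-response curve. Cells were HEK293/GLAST clones expressing mGluR5, dye-loaded at 25 °C for 45–60 min in HEPES-buffered HBSS; vehicle control was 0.3% DMSO.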
row,SMILES,EC50
1,"O=c1c2ccc(C#Cc3ccccn3)cc2nc2n1CC(CO)CC2 (centres unmarked) [Example 4.32, 8-(hydroxymethyl)-3-(pyridin-2-ylethynyl)-8,9-dihydro-6H-pyrido[2,1-b]quinazolin-11(7H)-one]",100 to 300 nM
2,"O=c1c2ccc(C#Cc3cccc(F)c3)cc2nc2n1CC(CO)CC2 (centres unmarked) [Example 4.31, 3-((3-fluorophenyl)ethynyl)-8-(hydroxymethyl)-8,9-dihydro-6H-pyrido[2,1-b]quinazolin-11(7H)-one]",< 10 nM
3,"O=c1c2ccc(C#Cc3ccccn3)cc2nc2n1C1CCC2C1 (centres unmarked) [Example 3.25, 3-(pyridin-2-ylethynyl)-8,9-dihydro-6H-6,9-methanopyrido[2,1-b]quinazolin-11(7H)-one]",10 to 30 nM
4,"CCC1CCCc2nc3cc(C#Cc4ccccn4)ccc3c(=O)n21 (centres unmarked) [Example 4.19, 9-ethyl-3-(pyridin-2-ylethynyl)-8,9-dihydro-6H-pyrido[2,1-b]quinazolin-11(7H)-one]",10 to 30 nM
5,"Cn1cnc2cc(C#Cc3ccccc3)ccc2c1=O [Example 1.3, 3-methyl-7-(phenylethynyl)quinazolin-4(3H)-one]",100 to 300 nM
6,"O=c1c2ccc(C#Cc3ccccn3)cc2nc2n1CC(O)CC2 (centres unmarked) [Example 4.24, 8-hydroxy-3-(pyridin-2-ylethynyl)-8,9-dihydro-6H-pyrido[2,1-b]quinazolin-11(7H)-one]",300 to 1000 nM
7,"CC(C)N(C)C(C)c1nc2cc(C#Cc3ccccn3)ccc2c(=O)n1C (centres unmarked) [Example 2.22, 2-(1-(isopropyl(methyl)amino)ethyl)-3-methyl-7-(pyridin-2-ylethynyl)quinazolin-4(3H)-one]",300 to 1000 nM
8,"O=c1c2ccc(C#Cc3cccc(F)c3)cc2nc2n1C(CO)CC2 (centres unmarked) [Example 3.5, 6-((3-fluorophenyl)ethynyl)-1-(hydroxymethyl)-2,3-dihydropyrrolo[2,1-b]quinazolin-9(1H)-one]",30 to 100 nM
9,"CC1CCn2c(nc3cc(C#Cc4cccc(F)c4)ccc3c2=O)C1 (centres unmarked) [Example 4.10, 3-((3-fluorophenyl)ethynyl)-7-methyl-8,9-dihydro-6H-pyrido[2,1-b]quinazolin-11(7H)-one]",< 10 nM
10,"O=c1c2ccc(C#Cc3ccc(F)cc3)cc2ncn1CC1CC1 [Example 1.9, 3-(cyclopropylmethyl)-7-((4-fluorophenyl)ethynyl)quinazolin-4(3H)-one]",100 to 300 nM
11,"C=CCC1CCCn2c1nc1cc(C#Cc3cccc(F)c3)ccc1c2=O (centres unmarked) [Example 4.7, 6-allyl-3-((3-fluorophenyl)ethynyl)-8,9-dihydro-6H-pyrido[2,1-b]quinazolin-11(7H)-one]",10 to 30 nM
12,"CC(c1nc2cc(C#Cc3ccccn3)ccc2c(=O)n1C)N(C)C1CCC1 (centres unmarked) [Example 2.23, 2-(1-(cyclobutyl(methyl)amino)ethyl)-3-methyl-7-(pyridin-2-ylethynyl)quinazolin-4(3H)-one]",300 to 1000 nM

# Next, values leading:
row,EC50,SMILES
1,10 to 30 nM,"CCNC(=O)c1cnc2cc(C#Cc3cccc(F)c3)ccn2c1=O [Example 13.5, N-ethyl-8-((3-fluorophenyl)ethynyl)-4-oxo-4H-pyrido[1,2-a]pyrimidine-3-carboxamide]"
2,30 to 100 nM,"O=c1c2ccc(C#Cc3ccccn3)cc2nc2n1CC1CCCN1C2 (centres unmarked) [Example 5.22, 8-(pyridin-2-ylethynyl)-2,3,13,13a-tetrahydro-1H-pyrrolo[1′,2′:4,5]pyrazino[2,1-b]quinazolin-11(5H)-one]"
3,30 to 100 nM,"C#CCN1CCc2nc3cc(C#Cc4ccccn4)ccc3c(=O)n2CC1 [Example 8.22, 3-(prop-2-yn-1-yl)-8-(pyridin-2-ylethynyl)-2,3,4,5-tetrahydro-[1,4]diazepino[7,1-b]quinazolin-11(1H)-one]"
4,300 to 1000 nM,Cc1ccc(C#Cc2ccc3c(=O)n4c(nc3c2)CCC2(CC4)OCCO2)cc1 [Example 7.32]
5,10 to 30 nM,"C=CCC1CCCCc2nc3cc(C#Cc4ccc(F)cc4)ccc3c(=O)n21 (centres unmarked) [Example 6.33, 10-allyl-3-((4-fluorophenyl)ethynyl)-7,8,9,10-tetrahydroazepino[2,1-b]quinazolin-12(6H)-one]"
6,100 to 300 nM,O=c1c2ccc(C#Cc3ccncc3F)cc2nc2n1CCC1(CC2)OCCO1 [Example 7.16]
7,10 to 30 nM,"O=c1c2ccc(C#Cc3cccc(F)c3)cc2nc2n1CCC1(CCCO1)CC2 (centres unmarked) [Example 6.26, 3-((3-fluorophenyl)ethynyl)-4′,5′,9,10-tetrahydro-3′H,6H-spiro[azepino[2,1-b]quinazoline-8,2′-furan]-12(7H)-one]"
8,30 to 100 nM,"O=C1CCc2nc3cc(C#Cc4cccc(F)c4)ccc3c(=O)n2CCN1 [Example 10.5, 9-((3-fluorophenyl)ethynyl)-2,3,5,6-tetrahydro-1H-[1,4]diazocino[8,1-b]quinazoline-4,12-dione]"
9,300 to 1000 nM,"O=C(Nc1ccc(F)cc1)c1ccn2c(=O)c3c(nc2c1)CCCCCC3 [Example 28.2, N-(4-fluorophenyl)-12-oxo-7,8,9,10,11,12-hexahydro-6H-cycloocta[d]pyrido[1,2-a]pyrimidine-3-carboxamide]"
10,10 to 30 nM,"CC1(C)CCc2nc3cc(/C=C/c4cccc(C#N)n4)ccc3c(=O)n2C1 [Example 20.13, (E)-6-(2-(8,8-dimethyl-11-oxo-7,8,9,11-tetrahydro-6H-pyrido[2,1-b]quinazolin-3-yl)vinyl)picolinonitrile]"
11,300 to 1000 nM,O=c1c2ccc(C#CC3=CCCCC3)cc2nc2n1CCC1(CC2)OCCO1 [Example 7.53]
12,10 to 30 nM,O=c1c2ccc(C#Cc3ccsc3)cc2nc2n1CCC1(CC2)OCCO1 [Example 7.59]
13,30 to 100 nM,Cc1csc(C#Cc2ccc3c(=O)n4c(nc3c2)CCC2(CC4)OCCO2)n1 [Example 7.61]
14,100 to 300 nM,Cc1cccc(C#Cc2ccc3c(=O)n4c(nc3c2)CCC2(CC4)OCCO2)n1 [Example 7.46]
15,< 10 nM,"CC1(C)CCCn2c(nc3cc(C#Cc4ccccn4)ccc3c2=O)C1 [Example 6.37, 7,7-dimethyl-3-(pyridin-2-ylethynyl)-7,8,9,10-tetrahydroazepino[2,1-b]quinazolin-12(6H)-one]"
16,300 to 1000 nM,O=c1c2ccc(C#Cc3cccc(Cl)c3)cc2nc2n1CCC1(CC2)OCCO1 [Example 7.8]
17,10 to 30 nM,"CC1CCCCn2c1nc1cc(C#Cc3ccccn3)ccc1c2=O (centres unmarked) [Example 6.35, 6-methyl-3-(pyridin-2-ylethynyl)-7,8,9,10-tetrahydroazepino[2,1-b]quinazolin-12(6H)-one]"
18,30 to 100 nM,"CC1CCc2nc3cc(C#Cc4cccc(C#N)n4)ccc3c(=O)n2CC1 (centres unmarked) [Example 6.47, 6-((8-methyl-12-oxo-6,7,8,9,10,12-hexahydroazepino[2,1-b]quinazolin-3-yl)ethynyl)picolinonitrile]"
19,10 to 30 nM,"CN1CCCn2c(nc3cc(C#Cc4ccc(F)cc4)ccc3c2=O)CC1 [Example 10.1, 11-((4-fluorophenyl)ethynyl)-3-methyl-3,4,5,6-tetrahydro-1H-[1,5]diazocino[2,1-b]quinazolin-8(2H)-one]"
20,300 to 1000 nM,"O=c1c2ccc(C#Cc3cccc(F)c3)cc2nc2n1CCN(C1CCC1)CC2 [Example 8.11, 3-cyclobutyl-8-((3-fluorophenyl)ethynyl)-2,3,4,5-tetrahydro-[1,4]diazepino[7,1-b]quinazolin-11(1H)-one]"
21,300 to 1000 nM,"O=c1c2ncc(C#Cc3ccccn3)cc2nc2n1C(CO)CC2 (centres unmarked) [Example 11.3, 8-(hydroxymethyl)-3-(pyridin-2-ylethynyl)-7,8-dihydropyrido[3,2-d]pyrrolo[1,2-a]pyrimidin-10(6H)-one]"
22,100 to 300 nM,"O=c1c2ccc(C#Cc3ccccn3)cc2nc2n1CCN(CCC(F)(F)F)CC2 [Example 8.21, 8-(pyridin-2-ylethynyl)-3-(3,3,3-trifluoropropyl)-2,3,4,5-tetrahydro-[1,4]diazepino[7,1-b]quinazolin-11(1H)-one]"
23,< 10 nM,"O=c1c2c(nc3cc(C#Cc4cccnc4)ccn13)CCCCC2 [Example 16.4, 3-(pyridin-3-ylethynyl)-7,8,9,10-tetrahydrocyclohepta[d]pyrido[1,2-a]pyrimidin-11(6H)-one]"
24,100 to 300 nM,"CCc1ccc(C#Cc2ccc3c(=O)n4c(nc3c2)CCCCC4)cc1 [Example 6.3, 3-((4-ethylphenyl)ethynyl)-7,8,9,10-tetrahydroazepino[2,1-b]quinazolin-12(6H)-one]"
25,< 10 nM,"CC1CCCCc2nc3cc(C#Cc4ccccn4)ccc3c(=O)n21 (centres unmarked) [Example 6.44, 10-methyl-3-(pyridin-2-ylethynyl)-7,8,9,10-tetrahydroazepino[2,1-b]quinazolin-12(6H)-one]"

# Same assay, conditions: mGluR5 PAM EC50, HEK293/GLAST cells expressing recombinant human mGluR5; FLIPR calcium signal; glutamate added at its EC20
row,SMILES,EC50
1,"CC1(C)CCc2nc3cc(C#Cc4ccccn4)ccn3c(=O)c2C1 [Example 15.4, 2,2-dimethyl-7-(pyridin-2-ylethynyl)-3,4-dihydro-1H-Pyrido[2,1-b]quinazolin-11(2H)-one]",< 10 nM
